From patent US4654326A, “Inhibition of plant viruses with oligonucleotides” (priority 1984, dated 1987)
“Also recorded” adds a separate entry of the source. Like-named read-outs stand apart in the source and are kept apart here.

Legend:
TMV [1] = assay: Inhibition of TMV replication in tobacco protoplasts (homogenates assayed for local lesions); format: cell-based, tobacco mosaic virus; settings: for inhibition at 0.1 µM: Tobacco mosaic virus, 1 × 10^-7 M, added within 3 hours of infection, average of four experiments
Method: (§1) Plant material treatment and measurement of infectivity. Partially purified AVF was prepared. The growth of N. glutinosa, N. tabacum Var. "Samsun", N. tabacum cv. Samsun NN, and preparation and inoculation of protoplasts were as described. To evaluate the effect of 2',5'-cores, nucleotides and nucleosides on TMV replication, various concentrations were added to 10 ml of protoplast suspension (1×10^5 cells/ml) at various times after inoculation with TMV. Protoplasts were incubated at 25° C. under continuous illumination of about 1500 Lx. At various times protoplasts were collected by centrifugation and homogenized. The homogenate was inoculated onto 12 half-leaves of N. glutinosa plants and compared to a standard solution of purified TMV on the opposite half-leaves. Lesion counts were adjusted to 10^6 live protoplasts and calibrated. Control protoplasts (no Nucleotides added) were assayed simultaneously. The assays for antiviral activity on TMV-infected tobacco leaf discs were done by enzyme-linked immunosorbent assay. The ability of the 2',5'-cores, nucleosides, and nucleotides to inhibit TMV replication in the intact plant was determined by infectivity tests as follows. Solutions containing 5 μg/ml TMV, 0.1 g carborundum (100 Tyler mesh), and 2',5'-cores, nucleosides, or nucleotides were applied onto 12 half-leaves of N. glutinosa. The remaining half-leaves were controls (inoculated with a solution containing no nucleotides). The infection was allowed to proceed 48 hours under continuous illumination.
the TMVinfected protoplasts within 3 hours of infection.
^b Average of four experiments.
by the 2',5cores, nucleosides and nucleotides was calculated as the
percent of local leasions produced in N. glutinosa treated by homogenates
of protoplasts compared to nontreated protoplasts.

TMV [2] = assay: Inhibition of TMV replication in intact N. glutinosa leaves (local lesion infectivity test); format: in vivo, tobacco mosaic virus; settings: for inhibition at 1 µM: Tobacco mosaic virus, 48 h, read-out: Inhibition of TMV replication in N. glutinosa leaves; for Inhibition of TMV replication in N. glutinosa leaves: 1 × 10^-6 M in the infecting solution, 48 hours after infection (Table 3)
TMV [3] = assay: TMV replication in TMV-infected tobacco leaf discs (ELISA); format: cell-based, tobacco mosaic virus; settings: up to 2×10^-7 M (FIG. 1)
Method: as §1, with “Solutions containing 5 μg/ml TMV, 0.1 g carborundum (100 Tyler mesh), and 2',5'-cores, nucleosides, or nucleotides were applied onto 12 half-leaves of N. glutinosa. The remaining half-leaves were controls (inoculated with a solution containing no nucleotides). The infection was allowed to proceed 48 hours under continuous illumination.” left out
TMV-infected tobacco leaf discs, treatment and TMV determination. […] Discs were removed at various times after TMV inoculation and their TMV content was determined. […]

N. glutinosa = format: in vivo; settings: non-infected plants, 1×10^-6 M, two week period
Method: Effect of 2',5'-adenylate trimer core and its analogs on TMV replication in intact plants. […] The cores inhibited the formation of local lesions following TMV infection by 89-99% (Table 3). […] Non-infected plants were treated with 1×10^-6 M 2',5'adenylate trimer core, 2',5'-cordycepin trimer core, 2',5'-A-A-ara-A, and 2',5'-A-A-Tu (data not shown).

[4] = read-out: Inhibition of TMV replication after 24 hr
[5] = read-out: Inhibition of TMV replication after 48 hr
[6] = read-out: Inhibition of TMV replication after 72 hr
[7] = 1×10^-6 M in the TMV-infecting solution

Molecule | Inhibition of TMV replication in protoplasts (in words) (TMV [1]) | inhibition at 0.1 µM (TMV [1]; [5]) [%] | inhibition at 1 µM (TMV [2]) [%] | other results
Nc1ncnc2c1ncn2[C@@H]1O[C@H](CO)[C@@H](O)[C@H]1O [Adenosine, adenosine] | less inhibitory | 0 | 0 | inhibition at 0.1 µM (TMV [1]; [4]): 14%; Inhibition of TMV replication in protoplasts (in words) (TMV [1]; listed as adenosine): some inhibition of TMV replication; Inhibition of TMV replication in tobacco leaf discs (in words) (TMV [3]): no inhibition of TMV replication
Nc1ncnc2c1ncn2[C@@H]1O[C@H](CO)[C@@H](O)[C@@H]1O [Ara-a] | – | – | 0 | –
OC[C@H]1O[C@@H](n2cnc3c(O)ncnc32)[C@H](O)[C@@H]1O [Inosine, inosine] | less inhibitory | 22 | 0 | inhibition at 0.1 µM (TMV [1]; [6]): 25%
Nc1ncnc2c1ncn2[C@@H]1O[C@H](COP(=O)(O)O)C[C@H]1O [Cordycepin monophosphate, Cordycepin 5'-monophosphate] | – | – | 0 | –
adenylyl-(2' 5')-adenylyl-(2' 5')-9-β-D-arabinofuranosyladenine [2',5'-A-A-ara-A] | – | – | – | Inhibition of TMV replication in N. glutinosa (in words) (TMV [2]; [7]): potent inhibitors of TMV replication; Inhibition of TMV replication in N. glutinosa leaves (TMV [2]): 94%; Inhibition of TMV replication in N. glutinosa (in words) (TMV [2]; no single concentration stated): inhibition of TMV replication; Inhibition of TMV replication in N. glutinosa (in words) (TMV [2]; no single concentration stated, listed as A-A-ara-A): also inhibited TMV replication; Toxicity (chlorosis or necrosis) (N. glutinosa): No toxicity (chlorosis or necrosis) was observed
Nc1ncnc2c1ncn2[C@@H]1O[C@H](COP(=O)(O)O)[C@@H](O)[C@@H]1O [Ara-AMP] | – | – | 0 | –
Nc1ncnc2c1ccn2[C@@H]1O[C@H](CO)[C@@H](O)[C@H]1O [Tubercidin, tubercidin] | – | – | 0 | –
Nc1ncnc2c1ccn2[C@@H]1O[C@H](COP(=O)(O)O)[C@@H](O)[C@H]1O [TuMP, tubercidin 5'-monophosphate] | – | – | 0 | –
adenylyl-(2' 5')-adenylyl-(2' 5)-tubercidin [2',5'-A-A-Tu] | – | – | – | Inhibition of TMV replication in N. glutinosa (in words) (TMV [2]; [7]): potent inhibitors of TMV replication; Inhibition of TMV replication in N. glutinosa leaves (TMV [2]): 95%; Inhibition of TMV replication in N. glutinosa (in words) (TMV [2]; no single concentration stated): also inhibited TMV replication; Toxicity (chlorosis or necrosis) (N. glutinosa): No toxicity (chlorosis or necrosis) was observed
Nc1ncnc2c1ncn2[C@@H]1O[C@H](CO)C[C@H]1O [Cordycepin, cordycepin] | less inhibitory | 21 | 0 | inhibition at 0.1 µM (TMV [1]; [6]): 32%
Nc1ncnc2c1ncn2[C@@H]1O[C@H](COP(=O)(O)O)[C@@H](O)[C@H]1O [AMP] | less inhibitory; also recorded: some inhibition of TMV replication | 33 | 10 | inhibition at 0.1 µM (TMV [1]; [4]): 22%; Inhibition of TMV replication in tobacco leaf discs (in words) (TMV [3]): no inhibition of TMV replication
